Experimental data: US7488756B2, “Use of non-competitive and selective GluR5 antagonists as glutamate receptor modulating compounds” (Neurosearch A/S, priority 2001, dated 2009)

Columns and labels:
GluR5 receptor [1] = biological target: T1, GluR5 receptor (Homo sapiens, UniProt P39086); assay: GluR5 binding assay: displacement of 3H-ATPA from membranes of HEK293 cells expressing GluR5
T1 construct: expressed in transfected cells; host or cells: HEK293
Description: The amount of radioactivity on the filters is determined by conventional liquid scintillation counting. Specific binding is total binding minus non-specific binding.

GluR5 receptor [2] = biological target: T1, GluR5 receptor; settings: Clarke et al., Nature 1997 389 599-603; read-out: Kd of binding to the GluR5 receptor; cited from earlier work
GluR6 receptors = biological target: T2, GluR6 receptors (Homo sapiens, UniProt Q13002); assay: Functional GluR6 assay: inhibition of domoate-induced increase in intracellular free calcium (FLIPR, Fluo-4); assay type: cell-based; settings: for IC50: HEK293 cells stably expressing un-edited GluR6, inhibition of 2 μM domoate-induced Cai elevation
T2 construct: expressed in transfected cells; host or cells: HEK293
Source text: (§1) In this example the inhibition of domoate-induced increase in intracellular free calcium concentration (Cai) is used as a measure for glutamate antagonist activity of test substances. Domoate is a close analog of kainite, and a potent glutamate agonist.
(§2) Human embryonic HEK293 cells stably expressing GluR5 receptors and GluR6 receptors, respectively, in their un-edited forms, are used.
(§3) Fluorometric methods for measuring Cai have been developed [see e.g. Tsien et al., J. Cell. Biol. 1982 94 325]. The calcium-chelating fluorochromes (tetracarboxylic acids) are loaded into the cells as acetoxymethyl esters and subsequently released by unspecific intracellular esterase's. The free acids, which are impermeable to the cell membrane, are maintained in the cell for hours. The fluorescence spectrum (either EXmax, EMmax or both) is changed by the binding of calcium. The fluorescence is then directly proportional to the Cai.
(§4) The present method uses the fluorochromes Fluo-3 or Fluo-4 as the calcium-chelator. Fluo-3/Fluo-4 is virtually nonfluorescent without calcium but the calcium-Fluo-3/Fluo-4 complexes show a bright fluorescence (EMmax=526 nm) after excitation around 500 nm (EXmax=505 nm). This fluorescence spectrum is similar to the spectrum of fluorescein. Since excitation and emission is in the visible light region of the spectrum standard equipment without quarts optics may be used.
(§5) The HEK293 cells stably expressing GluR5 or GluR6 expressing are grown in Dulbecco's Modified Eagle Medium (DMEM) containing 10% foetal calf serum, in polystyrene culture flasks (175 cm^2) in a humidified atmosphere of 5% CO2 in air, at 37° C. Confluency of cells should be 80-90% on day of plating. GluR5 or GluR6 cells are rinsed with 10 ml of phosphate buffered saline (PBS), then added 1.5 ml of Trypsin-EDTA and left in the incubator for 5 min. After addition of 10 ml of growth media, cells are resuspended by trituration with a 10 ml pipette 15 times.
The cells are seeded at a density of 0.5-1×10^6 cells/ml (100 μl/well) in black-walled, clear bottom, 96-well plates pre-treated with 0.001% PEI solution (75 μl/well for ≧30 min). Plated cells were allowed to proliferate for 24 h before loading with dye.
Fluo-4-AM (1 mg; Molecular Probes) is added 912 μl DMSO containing 25 mg/150 μl Pluoronic F-127 (Molecular Probes). […]
(§6) After the loading period, the loading media is aspirated and the cells are washed twice with 100 μl Na^+ free Ringer solution (NN: 10 mM HEPES, 140 mM Choline chloride, 5 mM KCl, 1 mM MgCl2, 10 mM CaCl2, pH 7.4) to remove extracellular dye. 100 μl NN is added to each well, and the fluorescence is measured in the FLIPR (Fluorescence Image Plate Reader). […]
Reading intervals: preincubation—10 sec.×7 and 3 sec.×3 antagonist phase—3 sec.×17 and 10 sec.×12 […]

GluR5 receptor [3] = biological target: T1, GluR5 receptor; assay: Functional GluR5 assay: inhibition of domoate-induced increase in intracellular free calcium (FLIPR, Fluo-4); assay type: cell-based; settings: for IC50: HEK293 cells stably expressing un-edited GluR5, inhibition of 2 μM domoate-induced Cai elevation
Source text: as §1, §2
In this example the activity of Compound A of the invention (5-carboxyl-2,4-di-benzamido-benzoic acid), obtained according to Ueda & Imai [Ueda M & Imai Y: Synthesis of polyamides by ring-opening polyaddition of bis-3,1-benzoxazin-4-ones with aliphatic diamines; J. Polym. Sci. 1979 17 (4) 1163-1173], is compared to the action of ATPA, a GluR5 receptor agonist, and CNQX, a GluR5 receptor antagonist that inhibits the activity of the agonist.
as §3, §4
as §5, with “times. […]” for “times.”
as §6

[4] = inhibition of specific binding of 3 nM 3H-ATPA, HEK293 GluR5 cell membranes, 60 minutes at 2° C., read-out: GluR5 Binding IC50

T2 sequence (Q13002 32-908): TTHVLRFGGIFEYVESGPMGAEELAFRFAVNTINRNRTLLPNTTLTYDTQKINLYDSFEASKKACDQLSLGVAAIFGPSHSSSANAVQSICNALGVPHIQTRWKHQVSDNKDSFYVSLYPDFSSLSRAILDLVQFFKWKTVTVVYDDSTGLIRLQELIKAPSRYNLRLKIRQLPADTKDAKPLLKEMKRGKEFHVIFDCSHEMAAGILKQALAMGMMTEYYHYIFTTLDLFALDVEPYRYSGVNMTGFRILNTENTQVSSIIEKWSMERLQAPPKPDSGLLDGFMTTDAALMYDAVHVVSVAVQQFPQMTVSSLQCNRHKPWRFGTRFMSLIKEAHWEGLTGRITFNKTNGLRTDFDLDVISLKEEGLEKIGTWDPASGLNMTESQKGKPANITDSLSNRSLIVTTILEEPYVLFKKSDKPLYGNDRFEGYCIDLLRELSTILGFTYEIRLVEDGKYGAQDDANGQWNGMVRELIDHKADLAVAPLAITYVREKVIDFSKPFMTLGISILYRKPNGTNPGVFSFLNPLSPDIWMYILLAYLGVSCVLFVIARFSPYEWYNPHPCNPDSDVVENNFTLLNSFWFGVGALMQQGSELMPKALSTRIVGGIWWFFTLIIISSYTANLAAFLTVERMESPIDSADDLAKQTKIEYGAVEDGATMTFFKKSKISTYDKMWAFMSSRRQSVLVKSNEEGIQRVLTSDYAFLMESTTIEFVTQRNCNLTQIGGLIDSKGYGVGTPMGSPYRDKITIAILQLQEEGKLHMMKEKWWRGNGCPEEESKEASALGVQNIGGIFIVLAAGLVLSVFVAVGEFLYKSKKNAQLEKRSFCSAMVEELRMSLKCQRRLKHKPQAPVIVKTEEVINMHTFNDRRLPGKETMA
T1 sequence (P39086 31-918): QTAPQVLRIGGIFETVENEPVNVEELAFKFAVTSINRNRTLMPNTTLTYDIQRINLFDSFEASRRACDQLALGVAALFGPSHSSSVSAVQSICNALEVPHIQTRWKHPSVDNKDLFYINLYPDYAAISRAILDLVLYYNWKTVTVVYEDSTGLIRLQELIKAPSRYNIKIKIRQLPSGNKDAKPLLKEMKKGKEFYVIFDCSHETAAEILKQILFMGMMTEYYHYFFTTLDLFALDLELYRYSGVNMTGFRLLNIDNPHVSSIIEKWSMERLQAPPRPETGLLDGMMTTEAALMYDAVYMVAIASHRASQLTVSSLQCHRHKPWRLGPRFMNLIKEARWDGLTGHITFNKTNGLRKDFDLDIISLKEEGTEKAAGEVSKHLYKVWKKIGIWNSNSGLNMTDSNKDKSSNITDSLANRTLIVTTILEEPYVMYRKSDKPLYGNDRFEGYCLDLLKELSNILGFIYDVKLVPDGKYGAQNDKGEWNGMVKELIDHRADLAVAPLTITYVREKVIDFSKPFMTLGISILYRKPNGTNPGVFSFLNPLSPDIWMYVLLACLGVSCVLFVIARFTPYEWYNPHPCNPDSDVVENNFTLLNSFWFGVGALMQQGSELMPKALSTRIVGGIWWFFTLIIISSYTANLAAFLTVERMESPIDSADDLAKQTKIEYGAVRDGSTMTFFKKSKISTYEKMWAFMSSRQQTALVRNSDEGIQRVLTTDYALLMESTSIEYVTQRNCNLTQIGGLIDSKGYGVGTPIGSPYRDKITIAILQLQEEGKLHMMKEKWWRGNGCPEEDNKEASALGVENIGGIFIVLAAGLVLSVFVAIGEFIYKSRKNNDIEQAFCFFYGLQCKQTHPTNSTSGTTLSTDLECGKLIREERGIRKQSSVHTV

| Compound | IC50 (GluR5 receptor [1]) [µM] | Kd (GluR5 receptor [2]) [µM] | IC50 (GluR6 receptors) [µM] | IC50 (GluR5 receptor [3]) [µM] | IC50 (GluR5 receptor [1]; [4]) [µM] | Selectivity GluR5 over GluR6 (GluR6 receptors; conclusion from functional GluR5 and GluR6 data (Table 1)) | Mode of action at the GluR5 receptor (GluR5 receptor [3]; conclusion from functional activity without binding (Table 1)) |
| --- | --- | --- | --- | --- | --- | --- | --- |
| CC(C)(C)c1onc(O)c1CC(N)C(=O)O (stereo not drawn) [ATPA, 2-amino-3-(3-hydroxy-5-tert-butylisoxazol-4-yl)propionic acid] | 0.024 | 0.0043 | > 30 | 0.7 |  |  |  |
| N#Cc1cc2[nH]c(=O)c(=O)[nH]c2cc1[N+](=O)[O-] [CNQX] |  |  | 7.6 | 3.3 | 0.72 |  |  |
| O=C(Nc1cc(NC(=O)c2ccccc2)c(C(=O)O)cc1C(=O)O)c1ccccc1 [Compound A, 5-carboxyl-2,4-di-benzamido-benzoic acid] |  |  | > 30 | 1.9 | > 10 | activity only at the GluR5 receptor, not at the GluR6 receptor | non-competitive antagonist of the GluR5 receptor |
